For six molecules, TGI results are on record in PubChem BioAssay (NCI).

Some test systems named below: 786-0 renal; A549 NSCLC; CCRF-CEM leukemia; COLO 205 colon; HL-60(TB) leukemia; HT29 colon; IGROV1 ovarian; LOX IMVI melanoma; MALME-3M melanoma; MDA-MB-435; MDA-N; MOLT-4 leukemia; NCI-H226 lung; NCI-H23 lung; NCI-H522 lung; NCI/ADR-RES ovarian; PC-3 prostate; SN12C renal; SNB-75 CNS; SW-620 colon.
Common to all, as to experiment: inhibition of tumour cell growth, NCI panel, 48 h

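48-hour exposure; five concentrations; linearly interpolated endpoints. The concentration for full growth arrest is given as TGI.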

For `O=C(Nc1nnc(-c2ccccc2)o1)C(SC(=S)N1CCCCC1)c1ccccc1` (stereo not given), the TGI with 786-0 renal is 87.5 µM; in the experiment on A549 NSCLC, 49.5 µM; with CCRF-CEM leukemia it was 14.1 µM; with COLO 205 colon, greater than 100 µM; with HL-60(TB) leukemia, 8.38 µM; with HT29 colon, 70 µM. The TGI with IGROV1 ovarian was greater than 100 µM; in the experiment on LOX IMVI melanoma, 18 µM; in the experiment on MALME-3M melanoma it was greater than 100 µM; in the experiment on MDA-MB-435 it was 73.3 µM; with MDA-N, 69.9 µM; in the experiment with MOLT-4 leukemia it was greater than 100 µM. The TGI in the experiment on NCI-H226 lung turned out to be 93.5 µM; in the experiment on NCI-H23 lung it was 30.7 µM; with NCI-H522 lung it was 97.6 µM; in the experiment on NCI/ADR-RES ovarian, 33.2 µM; in the experiment on PC-3 prostate, 96.2 µM; in the experiment with SN12C renal, 42 µM. The TGI with SNB-75 CNS and in the experiment on SW-620 colon was greater than 100 µM in each case.

As to `Nc1cc2c3c(c1)Oc1cc(N)cc4c1C3c1c(cc(N)cc1O4)O2`, the TGI in the experiment with 786-0 renal was greater than 86.5 µM; in the experiment on A549 NSCLC it was greater than 100 µM; in the experiment with CCRF-CEM leukemia, 81.5 µM; in the experiment with COLO 205 colon it was 34.3 µM; in the experiment with HL-60(TB) leukemia, 52.6 µM; in the experiment with HT29 colon it was greater than 63.1 µM. In addition, the TGI with IGROV1 ovarian is greater than 44.9 µM; in the experiment on LOX IMVI melanoma, 41.6 µM; in the experiment on MALME-3M melanoma it was 22.8 µM; in the experiment with MDA-MB-435, greater than 86.9 µM; with MDA-N, 59.5 µM; with MOLT-4 leukemia, greater than 100 µM. Besides, the TGI in the experiment on NCI-H226 lung is 12.8 µM; in the experiment on NCI-H23 lung it was greater than 66.5 µM; in the experiment on NCI-H522 lung, 45.5 µM; in the experiment on NCI/ADR-RES ovarian it was 26.9 µM; in the experiment on PC-3 prostate it was 98.3 µM; in the experiment on SN12C renal it was 49.2 µM. Moreover, the TGI was greater than 48.8 µM in the experiment on SNB-75 CNS and greater than 100 µM with SW-620 colon.

In the case of `COC(=O)CCc1cc(OC)c(O)c(C(Cc2ccc(OC)c(OC)c2)C(=O)OC)c1` (stereo not given), the TGI in the experiment with 786-0 renal, in the experiment with A549 NSCLC, with CCRF-CEM leukemia, in the experiment on COLO 205 colon, in the experiment on HL-60(TB) leukemia and with HT29 colon was greater than 100 µM throughout. Moreover, the TGI in the experiment on IGROV1 ovarian, in the experiment with LOX IMVI melanoma, in the experiment with MALME-3M melanoma, in the experiment with MDA-MB-435, in the experiment with MDA-N and with MOLT-4 leukemia was greater than 100 µM each time. Also, the TGI in the experiment on NCI-H226 lung, in the experiment on NCI-H23 lung, in the experiment with NCI-H522 lung, with NCI/ADR-RES ovarian, with PC-3 prostate and with SN12C renal was greater than 100 µM in each case. Besides, the TGI in the experiment on SNB-75 CNS and in the experiment with SW-620 colon was greater than 100 µM each time.

On to `O=P1(C(O)/C=C/c2ccccc2)N(Cc2ccccc2)[C@H](c2ccccc2)[C@@H](c2ccccc2)N1Cc1ccccc1` (stereo not given in full), for which the TGI in the experiment with 786-0 renal is greater than 100 µM; with A549 NSCLC, greater than 100 µM; in the experiment with CCRF-CEM leukemia, greater than 92.6 µM; with COLO 205 colon, 31.8 µM; in the experiment with HL-60(TB) leukemia it was 36.3 µM; in the experiment with HT29 colon, greater than 86.3 µM. Besides, the TGI in the experiment with IGROV1 ovarian is greater than 44.6 µM; in the experiment with LOX IMVI melanoma it was greater than 72.5 µM; in the experiment on MALME-3M melanoma it was 99.7 µM; in the experiment with MDA-MB-435, greater than 93.3 µM; with MDA-N it was greater than 100 µM; in the experiment with MOLT-4 leukemia, greater than 100 µM. The TGI is greater than 100 µM in the experiment with NCI-H226 lung; greater than 59.2 µM in the experiment on NCI-H23 lung; 59.2 µM in the experiment with NCI-H522 lung; greater than 100 µM with NCI/ADR-RES ovarian; greater than 94.7 µM with PC-3 prostate; greater than 100 µM in the experiment with SN12C renal. The results for the TGI in the experiment on SNB-75 CNS and in the experiment on SW-620 colon were greater than 83.6 µM and greater than 100 µM, respectively.

For `NCCSc1nc2ccccc2s1`, the TGI with 786-0 renal is 71.5 µM; in the experiment on A549 NSCLC, greater than 100 µM; in the experiment with CCRF-CEM leukemia it was greater than 100 µM; in the experiment on COLO 205 colon, greater than 100 µM; in the experiment with HL-60(TB) leukemia, greater than 100 µM; with HT29 colon it was greater than 100 µM. The TGI is greater than 100 µM in the experiment with IGROV1 ovarian; 90.8 µM with LOX IMVI melanoma; greater than 100 µM in the experiment on MALME-3M melanoma; 69 µM in the experiment with MDA-MB-435; greater than 100 µM in the experiment on MDA-N; 94.8 µM in the experiment with MOLT-4 leukemia. In addition, the TGI was 92.9 µM in the experiment on NCI-H226 lung; greater than 100 µM with NCI-H23 lung; 75.7 µM with NCI-H522 lung; greater than 100 µM in the experiment with NCI/ADR-RES ovarian; greater than 100 µM in the experiment with PC-3 prostate; greater than 100 µM with SN12C renal. The figures for the TGI with SNB-75 CNS and with SW-620 colon were 62.1 µM and greater than 100 µM, respectively.

For `N#Cc1c(N2CCCC2)nsc1NCc1ccccc1`, the TGI with 786-0 renal, in the experiment with A549 NSCLC, in the experiment with CCRF-CEM leukemia, in the experiment with COLO 205 colon, with HL-60(TB) leukemia and in the experiment on HT29 colon was greater than 100 µM in each case. For the same molecule, the TGI with IGROV1 ovarian, with LOX IMVI melanoma, in the experiment on MALME-3M melanoma, in the experiment with MDA-MB-435, in the experiment on MDA-N and in the experiment with MOLT-4 leukemia was greater than 100 µM in each case. Further, the TGI with NCI-H226 lung, with NCI-H23 lung, in the experiment with NCI-H522 lung, in the experiment with NCI/ADR-RES ovarian, with PC-3 prostate and with SN12C renal was greater than 100 µM in each case. Also, the TGI in the experiment on SNB-75 CNS and with SW-620 colon was greater than 100 µM in each case.
